Data reported in patent publication US8748434B2 (Hoffman-La Roche Inc., priority 2012, dated 2014).

Biological target: T1, human GPBAR1 receptor (Homo sapiens, UniProt Q8TDU6)
T1 construct: expressed in transfected cells
T1 sequence (Q8TDU6 1-330): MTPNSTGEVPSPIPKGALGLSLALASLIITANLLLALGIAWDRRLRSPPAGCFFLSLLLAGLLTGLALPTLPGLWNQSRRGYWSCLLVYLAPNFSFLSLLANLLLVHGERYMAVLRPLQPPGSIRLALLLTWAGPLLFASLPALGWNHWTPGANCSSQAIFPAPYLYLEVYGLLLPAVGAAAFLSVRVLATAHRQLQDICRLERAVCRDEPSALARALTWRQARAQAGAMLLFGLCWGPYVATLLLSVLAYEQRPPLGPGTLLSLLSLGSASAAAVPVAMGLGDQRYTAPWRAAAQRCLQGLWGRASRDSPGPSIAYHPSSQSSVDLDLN
Assay: functional cAMP assay in CHO-dhfr(minus) cells expressing human GPBAR1 receptors
Type: cell-based
Conditions: CHO-dhfr(minus) cells expressing human GPBAR1, compounds incubated 30 min at 30° C.
Excerpt: The cDNA of the human GPBAR1 receptor (Genbank: NM 170699 with the exception of a silent C:G mutation at position 339 from the start codon) was amplified by polymerase chain reaction (PCR) from human cDNA and inserted into pCineo (Promega) by standard methods (Current Protocols in Molecular Biology, Wiley Press, ed. Ausubel et al.). The final clone was verified by DNA sequence analysis. The plasmid was transfected into CHO cells deficient in dihydrofolate reductase activity (CHO-dhfr−) using Lipofectamine plus (Invitrogen). Clones were isolated in limited dilution conditions and identified by activities in the cAMP assay using lithocholic acid as agonist. A clonal cell line displaying the greatest activity in cAMP increases was selected and identified as giving consistently good responses for up to at least 20 passages.
CHO-dhfr(minus) cells expressing human GPBAR1 receptors are seeded 17-24 hours prior to the experiment 50.000 cells per well in a black 96 well plate with flat clear bottom (Corning Costar #3904) in DMEM (Invitrogen No. 31331), 1×HT supplement, with 10% fetal calf serum and incubated at 5% CO2 and 37° C. in a humidified incubator. The growth medium was exchanged with Krebs Ringer Bicarbonate buffer with 1 mM IBMX and incubated at 30° C. for 30 min. Compounds were added to a final assay volume of 100 μl and incubated for 30 min at 30° C. The assay was stopped by the addition of 50 μl lysis reagent (Tris, NaCl, 1.5% Triton X100, 2.5% NP40, 10% NaN3) and 50 μl detection solutions (20 μM mAb Alexa700-cAMP 1:1, and 48 μM Ruthenium-2-AHA-cAMP) and shaked for 2 h at room temperature. The time-resolved energy transfer is measured by a TRF reader (Evotec Technologies GmbH, Hamburg Germany), equipped with a ND:YAG laser as excitation source. The plate is measured twice with the excitation at 355 nm and at the emission with a delay of 100 ns and a gate of 100 ns, total exposure time 10 s at 730 (bandwidth 30 nm) or 645 nm (bandwidth 75 nm), respectively. The measured signal at 730 nm has to be corrected for the ruthenium background, the direct excitation of Alexa and the buffer control. The FRET signal is calculated as follows: FRET=T730−Alexa730−P(T645−B645) with P=R^u730−B730/Ru645−B645, where T730 is the test well measured at […], T645 is the test well measured at 645 nm, B730 and B645 are the buffer controls at 730 nm and 645 nm, respectively. cAMP content is determined from the function of a standard curve spanning from 10 μM to 0.13 nM cAMP.
EC50 values were determined using Activity Base analysis (ID Business Solution, Limited). The EC50 values for a wide range of bile acids generated from this assay were in agreement with the values published in the scientific literature. Specificity for GPBAR1 was tested in non-transfected CHO cells in the same assay as above.

SMILES	EC50
CN(C(=O)c1cc(C(F)(F)F)cc(S(=O)(=O)N2CCOCC2)c1)c1nnc(Cl)cc1-c1ccccc1 [Example 6]	427 nM
CN(C(=O)c1cc(C(F)(F)F)cc(C(F)(F)F)c1)c1nnc(Cl)cc1-c1ccccc1 [Example 7, N-(6-Chloro-4-phenyl-pyridazin-3-yl)-N-methyl-3,5-bis-trifluoromethyl-benzamide]	299 nM
Cc1ccccc1-c1cc(Cl)nnc1N(C)C(=O)c1cc(C(F)(F)F)cc(S(=O)(=O)CCCC(=O)O)c1 [Example 10, 4-{3-[(6-Chloro-4-o-tolyl-pyridazin-3-yl)-methyl-carbamoyl]-5-trifluoromethyl-benzenesulfonyl}-butyric acid]	8180 nM
CN(C(=O)c1cc(C(F)(F)F)cc(S(C)(=O)=O)c1)c1nnc(Cl)cc1-c1cccnc1OCC(F)(F)F [Example 11, N-{6-Chloro-4-[2-(2,2,2-trifluoro-ethoxy)-pyridin-3-yl]-pyridazin-3-yl}-3-methanesulfonyl-N-methyl-5-trifluoromethyl-benzamide]	2390 nM
Cc1cc(-c2cccnc2OCC(F)(F)F)c(N(C)C(=O)c2cc(C(F)(F)F)cc(S(C)(=O)=O)c2)nn1 [Example 13, 3-Methanesulfonyl-N-methyl-N-{6-methyl-4-[2-(2,2,2-trifluoro-ethoxy)-pyridin-3-yl]-pyridazin-3-yl}-5-trifluoromethyl-benzamide]	3910 nM
Cc1ccccc1-c1cnncc1N(C)C(=O)c1cc(C(F)(F)F)cc(S(C)(=O)=O)c1 [Example 15, 3-Methanesulfonyl-N-methyl-N-(5-o-tolyl-pyridazin-4-yl)-5-trifluoromethyl-benzamide]	429 nM
Cc1ccccc1-c1cnncc1N(C)C(=O)c1cc(Cl)cc(S(C)(=O)=O)c1 [Example 16, 3-Chloro-5-methanesulfonyl-N-methyl-N-(5-o-tolyl-pyridazin-4-yl)-benzamide]	663 nM
Cc1ccccc1-c1cnncc1N(C)C(=O)c1cc(C(F)(F)F)cc(S(=O)(=O)CCCC(=O)OC(C)(C)C)c1 [Example 17, 4-{3-[Methyl-(5-o-tolyl-pyridazin-4-yl)-carbamoyl]-5-trifluoromethyl-benzenesulfonyl}-butyric acid tert-butyl ester]	775 nM
Cc1ccccc1-c1cnncc1N(C)C(=O)c1cc(C(F)(F)F)cc(S(=O)(=O)CCCC(=O)O)c1 [Example 18, 4-{3-[Methyl-(5-o-tolyl-pyridazin-4-yl)-carbamoyl]-5-trifluoromethyl-benzenesulfonyl}-butyric acid]	> 10000 nM
Cc1ccccc1-c1ncncc1N(C)C(=O)c1cc(C(F)(F)F)cc(C(F)(F)F)c1 [Example 19, N-Methyl-N-(4-o-tolyl-pyrimidin-5-yl)-3,5-bis-trifluoromethyl-benzamide]	1480 nM

The next lines start with the values.

EC50	SMILES
165 nM	COc1cc(F)ccc1-c1cc(Cl)nnc1N(C)C(=O)c1cc(C(F)(F)F)cc(S(C)(=O)=O)c1 [Example 1, N-[6-Chloro-4-(4-fluoro-2-methoxy-phenyl)-pyridazin-3-yl]-3-methanesulfonyl-N-methyl-5-trifluoromethyl-benzamide]
75 nM	COc1cc(F)ccc1-c1ccnnc1N(C)C(=O)c1cc(C(F)(F)F)cc(S(C)(=O)=O)c1 [Example 2, N-[4-(4-Fluoro-2-methoxy-phenyl)-pyridazin-3-yl]-3-methanesulfonyl-N-methyl-5-trifluoromethyl-benzamide]
178 nM	COc1cc(F)ccc1-c1cc(C)nnc1N(C)C(=O)c1cc(C(F)(F)F)cc(S(C)(=O)=O)c1 [Example 3, N-[4-(4-Fluoro-2-methoxy-phenyl)-6-methyl-pyridazin-3-yl]-3-methanesulfonyl-N-methyl-5-trifluoromethyl-benzamide]
2180 nM	Cc1ccccc1-c1cc(Cl)nnc1N(C)C(=O)c1cc(C(F)(F)F)cc(S(C)(=O)=O)c1 [Example 4, N-(6-Chloro-4-o-tolyl-pyridazin-3-yl)-3-methanesulfonyl-N-methyl-5-trifluoromethyl-benzamide]
2690 nM	CN(C(=O)c1cc(C(F)(F)F)cc(S(C)(=O)=O)c1)c1nnc(Cl)cc1-c1ccccc1 [Example 5, N-(6-Chloro-4-phenyl-pyridazin-3-yl)-3-methanesulfonyl-N-methyl-5-trifluoromethyl-benzamide]
1520 nM	COc1ncccc1-c1cc(Cl)nnc1N(C)C(=O)c1cc(C(F)(F)F)cc(S(C)(=O)=O)c1 [Example 8, N-[6-Chloro-4-(2-methoxy-pyridin-3-yl)-pyridazin-3-yl]-3-methanesulfonyl-N-methyl-5-trifluoromethyl-benzamide]
160 nM	CN(C(=O)c1cc(C(F)(F)F)cc(S(C)(=O)=O)c1)c1nnccc1-c1cccnc1OCC(F)(F)F [Example 12, 3-Methanesulfonyl-N-methyl-N-{4-[2-(2,2,2-trifluoro-ethoxy)-pyridin-3-yl]-pyridazin-3-yl}-5-trifluoromethyl-benzamide]
230 nM	COc1cc(F)ccc1-c1cnncc1N(C)C(=O)c1cc(C(F)(F)F)cc(S(C)(=O)=O)c1 [Example 14, N-[5-(4-Fluoro-2-methoxy-phenyl)-pyridazin-4-yl]-3-methanesulfonyl-N-methyl-5-trifluoromethyl-benzamide]
